#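 Each compound was tested at five concentrations against cells in 96-well plates for 48 hours. At the TGI there is no net growth.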
# Assays:
# Assay in all cases: DTP human tumour cell line panel, 48 h
# A549 NSCLC = test system: A549 NSCLC
# ACHN renal = test system: ACHN renal
# CCRF-CEM leukemia = test system: CCRF-CEM leukemia
# COLO 205 colon = test system: COLO 205 colon
# DMS 273 small cell lung = test system: DMS 273 small cell lung
# EKVX NSCLC = test system: EKVX NSCLC
# HCC-2998 colon = test system: HCC-2998 colon
# HCT-116 colon = test system: HCT-116 colon
# HCT-15 colon = test system: HCT-15 colon
# HL-60(TB) leukemia = test system: HL-60(TB) leukemia
# HOP-18 NSCLC = test system: HOP-18 NSCLC
# HOP-62 NSCLC = test system: HOP-62 NSCLC
# HOP-92 NSCLC = test system: HOP-92 NSCLC
# HT29 colon = test system: HT29 colon
# IGROV1 ovarian = test system: IGROV1 ovarian
# K-562 leukemia = test system: K-562 leukemia
# KM12 colon = test system: KM12 colon
# KM20L2 colon = test system: KM20L2 colon
# LOX IMVI melanoma = test system: LOX IMVI melanoma
# LXFL 529 NSCLC = test system: LXFL 529 NSCLC
# M14 melanoma = test system: M14 melanoma
# M19-MEL melanoma = test system: M19-MEL melanoma
# NCI-H226 lung = test system: NCI-H226 lung
# NCI-H23 lung = test system: NCI-H23 lung
# NCI-H460 lung = test system: NCI-H460 lung
# OVCAR-3 ovarian = test system: OVCAR-3 ovarian
# OVCAR-4 ovarian = test system: OVCAR-4 ovarian
# OVCAR-5 ovarian = test system: OVCAR-5 ovarian
# OVCAR-8 ovarian = test system: OVCAR-8 ovarian
# RPMI-8226 leukemia = test system: RPMI-8226 leukemia
# RXF 393 renal = test system: RXF 393 renal
# SF-268 CNS = test system: SF-268 CNS
# SK-MEL-2 melanoma = test system: SK-MEL-2 melanoma
# SK-MEL-28 melanoma = test system: SK-MEL-28 melanoma
# SK-MEL-5 melanoma = test system: SK-MEL-5 melanoma
# SN12C renal = test system: SN12C renal
# SNB-19 CNS = test system: SNB-19 CNS
# SNB-75 CNS = test system: SNB-75 CNS
# SNB-78 CNS = test system: SNB-78 CNS
# SW-620 colon = test system: SW-620 colon
# TK-10 renal = test system: TK-10 renal
# U251 CNS = test system: U251 CNS
# UACC-257 melanoma = test system: UACC-257 melanoma
# UACC-62 melanoma = test system: UACC-62 melanoma
# UO-31 renal = test system: UO-31 renal
# 786-0 renal = test system: 786-0 renal
# A498 renal = test system: A498 renal
# CAKI-1 renal = test system: CAKI-1 renal
# DLD-1 colon = test system: DLD-1 colon
# DMS 114 small cell lung = test system: DMS 114 small cell lung
# MALME-3M melanoma = test system: MALME-3M melanoma
# MOLT-4 leukemia = test system: MOLT-4 leukemia
# NCI-H522 lung = test system: NCI-H522 lung
# SF-295 CNS = test system: SF-295 CNS
# SF-539 CNS = test system: SF-539 CNS
# SK-OV-3 ovarian = test system: SK-OV-3 ovarian
# XF 498 CNS = test system: XF 498 CNS
# SR leukemia = test system: SR leukemia
compound,measurement,setting,value
NCc1ccccc1-c1c2nc(c(-c3ccccc3CN)c3ccc([nH]3)c(-c3ccccc3CN)c3nc(c(-c4ccccc4CN)c4ccc1[nH]4)C=C3)C=C2,TGI,A549 NSCLC,46.9 µM
same,TGI,ACHN renal,35.3 µM
same,TGI,CCRF-CEM leukemia,27.1 µM
same,TGI,COLO 205 colon,97.7 µM
same,TGI,DMS 273 small cell lung,46.4 µM
same,TGI,EKVX NSCLC,48.7 µM
same,TGI,HCC-2998 colon,76.3 µM
same,TGI,HCT-116 colon,32.5 µM
same,TGI,HCT-15 colon,49.4 µM
same,TGI,HL-60(TB) leukemia,33.3 µM
same,TGI,HOP-18 NSCLC,8.81 µM
same,TGI,HOP-62 NSCLC,60.4 µM
same,TGI,HOP-92 NSCLC,22.2 µM
same,TGI,HT29 colon,> 100 µM
same,TGI,IGROV1 ovarian,59.4 µM
same,TGI,K-562 leukemia,35.5 µM
same,TGI,KM12 colon,50.7 µM
same,TGI,KM20L2 colon,63 µM
same,TGI,LOX IMVI melanoma,56.3 µM
same,TGI,LXFL 529 NSCLC,46.5 µM
same,TGI,M14 melanoma,48.7 µM
same,TGI,M19-MEL melanoma,50.7 µM
same,TGI,NCI-H226 lung,33.4 µM
same,TGI,NCI-H23 lung,58.4 µM
same,TGI,NCI-H460 lung,66.7 µM
same,TGI,OVCAR-3 ovarian,39.2 µM
same,TGI,OVCAR-4 ovarian,51.2 µM
same,TGI,OVCAR-5 ovarian,33.8 µM
same,TGI,OVCAR-8 ovarian,> 100 µM
same,TGI,RPMI-8226 leukemia,32.3 µM
same,TGI,RXF 393 renal,43 µM
same,TGI,SF-268 CNS,> 100 µM
same,TGI,SK-MEL-2 melanoma,73.9 µM
same,TGI,SK-MEL-28 melanoma,43.4 µM
same,TGI,SK-MEL-5 melanoma,63.7 µM
same,TGI,SN12C renal,39.8 µM
same,TGI,SNB-19 CNS,43.5 µM
same,TGI,SNB-75 CNS,24.7 µM
same,TGI,SNB-78 CNS,40.9 µM
same,TGI,SW-620 colon,> 100 µM
same,TGI,TK-10 renal,63.1 µM
same,TGI,U251 CNS,51.6 µM
same,TGI,UACC-257 melanoma,47.7 µM
same,TGI,UACC-62 melanoma,54.1 µM
same,TGI,UO-31 renal,42.6 µM
COc1cccc(C2=NC(C(C)C)CO2)c1 (stereo unspecified),TGI,786-0 renal,> 100 µM
same,TGI,A498 renal,> 100 µM
same,TGI,A549 NSCLC,> 100 µM
same,TGI,ACHN renal,> 100 µM
same,TGI,CAKI-1 renal,> 100 µM
same,TGI,CCRF-CEM leukemia,> 100 µM
same,TGI,COLO 205 colon,> 100 µM
same,TGI,DLD-1 colon,> 100 µM
same,TGI,DMS 114 small cell lung,> 100 µM
same,TGI,DMS 273 small cell lung,> 100 µM
same,TGI,EKVX NSCLC,> 100 µM
same,TGI,HCC-2998 colon,> 100 µM
same,TGI,HCT-15 colon,> 100 µM
same,TGI,HL-60(TB) leukemia,> 100 µM
same,TGI,HOP-62 NSCLC,> 100 µM
same,TGI,HT29 colon,> 100 µM
same,TGI,IGROV1 ovarian,> 100 µM
same,TGI,K-562 leukemia,> 100 µM
same,TGI,KM12 colon,> 100 µM
same,TGI,KM20L2 colon,> 100 µM
same,TGI,LOX IMVI melanoma,> 100 µM
same,TGI,LXFL 529 NSCLC,> 100 µM
same,TGI,M14 melanoma,> 100 µM
same,TGI,M19-MEL melanoma,> 100 µM
same,TGI,MALME-3M melanoma,> 100 µM
same,TGI,MOLT-4 leukemia,> 100 µM
same,TGI,NCI-H226 lung,> 100 µM
same,TGI,NCI-H23 lung,> 100 µM
same,TGI,NCI-H460 lung,> 100 µM
same,TGI,NCI-H522 lung,> 100 µM
same,TGI,OVCAR-3 ovarian,> 100 µM
same,TGI,OVCAR-4 ovarian,> 100 µM
same,TGI,OVCAR-5 ovarian,> 100 µM
same,TGI,OVCAR-8 ovarian,> 100 µM
same,TGI,RPMI-8226 leukemia,> 100 µM
same,TGI,RXF 393 renal,> 100 µM
same,TGI,SF-268 CNS,> 100 µM
same,TGI,SF-295 CNS,> 100 µM
same,TGI,SF-539 CNS,> 100 µM
same,TGI,SK-MEL-2 melanoma,> 100 µM
same,TGI,SK-MEL-28 melanoma,> 100 µM
same,TGI,SK-MEL-5 melanoma,> 100 µM
same,TGI,SK-OV-3 ovarian,> 100 µM
same,TGI,SN12C renal,> 100 µM
same,TGI,SNB-19 CNS,> 100 µM
same,TGI,SNB-75 CNS,> 100 µM
same,TGI,SNB-78 CNS,> 100 µM
same,TGI,SW-620 colon,> 100 µM
same,TGI,TK-10 renal,> 100 µM
same,TGI,UACC-257 melanoma,> 100 µM
same,TGI,UACC-62 melanoma,> 100 µM
same,TGI,UO-31 renal,> 100 µM
same,TGI,XF 498 CNS,> 100 µM
CC(OC(C)(C)C)[C@H](NC(=O)OCC(Cl)(Cl)Cl)C(=O)O (stereo partly specified),TGI,A498 renal,> 100 µM
same,TGI,A549 NSCLC,> 100 µM
same,TGI,ACHN renal,> 100 µM
same,TGI,CAKI-1 renal,> 100 µM
same,TGI,CCRF-CEM leukemia,> 100 µM
same,TGI,COLO 205 colon,> 100 µM
same,TGI,DLD-1 colon,> 100 µM
same,TGI,DMS 114 small cell lung,> 100 µM
same,TGI,DMS 273 small cell lung,> 100 µM
same,TGI,EKVX NSCLC,> 100 µM
same,TGI,HCC-2998 colon,> 100 µM
same,TGI,HCT-116 colon,> 100 µM
same,TGI,HCT-15 colon,> 100 µM
same,TGI,HL-60(TB) leukemia,> 100 µM
same,TGI,HOP-62 NSCLC,> 100 µM
same,TGI,HOP-92 NSCLC,> 100 µM
same,TGI,HT29 colon,> 100 µM
same,TGI,IGROV1 ovarian,> 100 µM
same,TGI,K-562 leukemia,> 100 µM
same,TGI,KM12 colon,> 100 µM
same,TGI,KM20L2 colon,> 100 µM
same,TGI,LXFL 529 NSCLC,> 100 µM
same,TGI,M14 melanoma,> 100 µM
same,TGI,M19-MEL melanoma,> 100 µM
same,TGI,MALME-3M melanoma,> 100 µM
same,TGI,MOLT-4 leukemia,> 100 µM
same,TGI,NCI-H23 lung,> 100 µM
same,TGI,NCI-H460 lung,> 100 µM
same,TGI,NCI-H522 lung,> 100 µM
same,TGI,OVCAR-3 ovarian,> 100 µM
same,TGI,OVCAR-4 ovarian,> 100 µM
same,TGI,OVCAR-5 ovarian,> 100 µM
same,TGI,OVCAR-8 ovarian,> 100 µM
same,TGI,RPMI-8226 leukemia,> 100 µM
same,TGI,RXF 393 renal,> 100 µM
same,TGI,SF-268 CNS,> 100 µM
same,TGI,SF-295 CNS,> 100 µM
same,TGI,SF-539 CNS,> 100 µM
same,TGI,SK-MEL-2 melanoma,> 100 µM
same,TGI,SK-MEL-28 melanoma,> 100 µM
same,TGI,SK-MEL-5 melanoma,> 100 µM
same,TGI,SK-OV-3 ovarian,> 100 µM
same,TGI,SN12C renal,> 100 µM
same,TGI,SNB-19 CNS,> 100 µM
same,TGI,SNB-75 CNS,> 100 µM
same,TGI,SNB-78 CNS,> 100 µM
same,TGI,SR leukemia,> 100 µM
same,TGI,SW-620 colon,> 100 µM
same,TGI,TK-10 renal,> 100 µM
same,TGI,U251 CNS,> 100 µM
same,TGI,UACC-257 melanoma,> 100 µM
same,TGI,UACC-62 melanoma,> 100 µM
same,TGI,UO-31 renal,> 100 µM
same,TGI,XF 498 CNS,> 100 µM
N#Cc1c2ccccc2cn1-c1ccc(F)cc1,TGI,786-0 renal,> 100 µM
same,TGI,A549 NSCLC,> 100 µM
same,TGI,ACHN renal,> 100 µM
same,TGI,CAKI-1 renal,> 100 µM
same,TGI,CCRF-CEM leukemia,> 100 µM
same,TGI,COLO 205 colon,61.7 µM
same,TGI,DLD-1 colon,> 100 µM
same,TGI,DMS 114 small cell lung,> 100 µM
same,TGI,HCC-2998 colon,> 100 µM
same,TGI,HCT-116 colon,62.3 µM
same,TGI,HL-60(TB) leukemia,24.2 µM
same,TGI,HOP-62 NSCLC,> 100 µM
same,TGI,HOP-92 NSCLC,68.5 µM
same,TGI,HT29 colon,> 100 µM
same,TGI,IGROV1 ovarian,> 100 µM
same,TGI,K-562 leukemia,> 100 µM
same,TGI,KM12 colon,97.4 µM
same,TGI,KM20L2 colon,> 100 µM
same,TGI,LXFL 529 NSCLC,> 100 µM
same,TGI,M14 melanoma,> 100 µM
same,TGI,M19-MEL melanoma,> 100 µM
same,TGI,MALME-3M melanoma,86.1 µM
same,TGI,MOLT-4 leukemia,90.5 µM
same,TGI,NCI-H226 lung,55.6 µM
same,TGI,NCI-H23 lung,56.2 µM
same,TGI,NCI-H460 lung,> 100 µM
same,TGI,NCI-H522 lung,43.2 µM
same,TGI,OVCAR-3 ovarian,67.9 µM
same,TGI,OVCAR-4 ovarian,> 100 µM
same,TGI,OVCAR-5 ovarian,> 100 µM
same,TGI,RPMI-8226 leukemia,61.2 µM
same,TGI,SF-268 CNS,99.5 µM
same,TGI,SF-295 CNS,> 100 µM
same,TGI,SF-539 CNS,> 100 µM
same,TGI,SK-MEL-28 melanoma,> 100 µM
same,TGI,SNB-19 CNS,> 100 µM
same,TGI,SNB-75 CNS,18.9 µM
same,TGI,SW-620 colon,> 100 µM
same,TGI,TK-10 renal,> 100 µM
same,TGI,U251 CNS,> 100 µM
same,TGI,UACC-257 melanoma,83.8 µM
same,TGI,UACC-62 melanoma,> 100 µM
same,TGI,UO-31 renal,39.6 µM
same,TGI,XF 498 CNS,> 100 µM

# Source: PubChem BioAssay (NCI)
